{
  "source": "paper PMC4917279",
  "about": "(Journal of Medicinal Chemistry, 2016)",
  "experiment_in_all_cases": "KINOMEscan",
  "assay_type_in_all_cases": "binding",
  "conditions_in_all_cases": "read-out: %Ctrl @ 1000 nM",
  "key": {"[1]": {"target": "T1, ABL1(H396P)-phosphorylated (Homo sapiens, UniProt P00519, H396P)", "T1 construct": "purchased DiscoveRx (KINOMEscan service)"}, "[2]": {"target": "T2, ABL1(Q252H)-phosphorylated (Homo sapiens, UniProt P00519, Q252H)", "T2 construct": "purchased DiscoveRx (KINOMEscan service)"}, "ABL1-nonphosphorylated": {"target": "T3, ABL1-nonphosphorylated (Homo sapiens, UniProt P00519)", "T3 construct": "purchased DiscoveRx"}, "ALK(L1196M)": {"target": "T4, ALK(L1196M) (Homo sapiens, UniProt Q9UM73, L1196M)", "T4 construct": "purchased DiscoveRx KINOMEscan"}, "AURKA": {"target": "T5, AURKA (Homo sapiens, UniProt O14965)", "T5 construct": "purchased DiscoveRx KINOMEscan"}, "BMPR2": {"target": "T6, BMPR2 (Homo sapiens, UniProt Q13873)", "T6 construct": "purchased DiscoveRx KINOMEscan"}, "BRAF(V600E)": {"target": "T7, BRAF(V600E) (Homo sapiens, UniProt P15056, V600E)", "T7 construct": "purchased DiscoveRx KINOMEscan", "T7 sequence (P15056 whole entry V600E)": "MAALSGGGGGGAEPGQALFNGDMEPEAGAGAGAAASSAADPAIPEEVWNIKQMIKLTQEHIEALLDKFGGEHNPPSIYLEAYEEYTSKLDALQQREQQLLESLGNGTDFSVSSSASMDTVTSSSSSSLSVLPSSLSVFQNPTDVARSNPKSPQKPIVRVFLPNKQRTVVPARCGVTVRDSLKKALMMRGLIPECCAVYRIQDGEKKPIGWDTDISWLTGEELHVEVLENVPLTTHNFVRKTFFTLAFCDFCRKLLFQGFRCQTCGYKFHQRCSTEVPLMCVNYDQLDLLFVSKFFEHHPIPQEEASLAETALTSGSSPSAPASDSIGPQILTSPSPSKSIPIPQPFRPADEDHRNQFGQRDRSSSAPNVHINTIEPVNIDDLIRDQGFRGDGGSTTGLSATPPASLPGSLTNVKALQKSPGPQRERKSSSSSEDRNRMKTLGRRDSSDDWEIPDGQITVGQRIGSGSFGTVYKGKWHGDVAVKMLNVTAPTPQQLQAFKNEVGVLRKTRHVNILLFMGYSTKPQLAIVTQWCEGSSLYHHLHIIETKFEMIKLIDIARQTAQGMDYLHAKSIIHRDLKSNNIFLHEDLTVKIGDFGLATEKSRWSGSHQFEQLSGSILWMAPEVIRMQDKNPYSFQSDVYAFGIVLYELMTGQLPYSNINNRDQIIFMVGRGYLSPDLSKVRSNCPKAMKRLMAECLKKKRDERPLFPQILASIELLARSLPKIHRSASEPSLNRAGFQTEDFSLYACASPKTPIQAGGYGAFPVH"}, "CAMKK2": {"target": "T8, CAMKK2 (Homo sapiens, UniProt Q96RR4)", "T8 construct": "purchased DiscoveRx KINOMEscan"}, "CDC2L2": {"target": "T9, CDC2L2 (Homo sapiens, UniProt Q9UQ88)", "T9 construct": "purchased DiscoveRx KINOMEscan"}, "CDC2L5": {"target": "T10, CDC2L5 (Homo sapiens, UniProt Q14004)", "T10 construct": "purchased DiscoveRx KINOMEscan", "procedure": "(§1) 1.1. Table S1 KINOMEscan Data. The KINOMEscan was performed at DiscoveRx. For\n(§2) a more detailed description of this assay technology, see: Fabian, M. A.; Biggs, W.\n(§3) H., III; Treiber, D. K.; Atteridge, C. E.; Azimioara, M. D.; Benedetti, M. G.; Carter,\n(§4) T. A.; Ciceri, P.; Edeen, P. T.; Floyd, M.; Ford, J. M.; Galvin, M.; Gerlach, J. L.;\n(§5) Grotzfeld, R. M.; Herrgard, S.; Insko, D. E.; Insko, M. A.; Lai, A. G.; Lélias, J..M.;\n(§6) Mehta, S. A.; Milanov, Z. V.; Velasco, A. M.; Wodicka, L. M.; Patel, H. K.;\n(§7) Zarrinkar, P. P.; Lockhart, D. J. A small molecule–kinase interaction map for clinical\n(§8) Target Gene Symbol %Ctrl @ 1000 nM BAY-598\n(§9) ABL1(H396P)-nonphosphorylated 92\n(§10) ABL1(Q252H)-nonphosphorylated 66\n(§11) ABL1(T315I)-nonphosphorylated 77\n(§12) ABL1-nonphosphorylated 79"}, "PRP4": {"target": "T11, PRP4 (Homo sapiens, UniProt Q13523)", "T11 construct": "purchased DiscoveRx KINOMEscan", "procedure": "as §1, §2, §3, §4, §5, §6, §7, §8, §9, §10, §11, §12"}, "CSNK1D": {"target": "T12, CSNK1D (Homo sapiens, UniProt P48730)", "T12 construct": "purchased DiscoveRx KINOMEscan"}, "CSNK2A1": {"target": "T13, CSNK2A1 (Homo sapiens, UniProt P68400)", "T13 construct": "purchased DiscoveRx KINOMEscan"}, "DCAMKL3": {"target": "T14, DCAMKL3 (Homo sapiens, UniProt Q9C098)", "T14 construct": "purchased DiscoveRx KINOMEscan"}, "DRAK2": {"target": "T15, DRAK2 (Homo sapiens, UniProt O94768)", "T15 construct": "purchased DiscoveRx KINOMEscan"}, "[3]": {"target": "T16, EGFR(L747-S752del, P753S) (Homo sapiens, UniProt P00533, DEL747-752/P753S)", "T16 construct": "purchased DiscoveRx KINOMEscan"}, "EPHA3": {"target": "T17, EPHA3 (Homo sapiens, UniProt P29320)", "T17 construct": "purchased DiscoveRx KINOMEscan"}, "EPHA5": {"target": "T18, EPHA5 (Homo sapiens, UniProt P54756)", "T18 construct": "purchased DiscoveRx KINOMEscan"}, "ERK5": {"target": "T19, ERK5 (Homo sapiens, UniProt Q13164)", "T19 construct": "purchased DiscoveRx KINOMEscan"}, "FAK": {"target": "T20, FAK (Homo sapiens, UniProt Q05397)", "T20 construct": "purchased DiscoveRx KINOMEscan"}, "FLT1": {"target": "T21, FLT1 (Homo sapiens, UniProt P17948)", "T21 construct": "purchased DiscoveRx KINOMEscan"}, "FRK": {"target": "T22, FRK (Homo sapiens, UniProt P42685)", "T22 construct": "purchased DiscoveRx KINOMEscan"}, "IKK-beta": {"target": "T23, IKK-beta (Homo sapiens, UniProt O14920)", "T23 construct": "purchased DiscoveRx KINOMEscan"}, "KIT(V559D)": {"target": "T24, KIT(V559D) (Homo sapiens, UniProt P10721, V559D)", "T24 construct": "purchased DiscoveRx KINOMEscan", "T24 sequence (P10721 26-976 V559D)": "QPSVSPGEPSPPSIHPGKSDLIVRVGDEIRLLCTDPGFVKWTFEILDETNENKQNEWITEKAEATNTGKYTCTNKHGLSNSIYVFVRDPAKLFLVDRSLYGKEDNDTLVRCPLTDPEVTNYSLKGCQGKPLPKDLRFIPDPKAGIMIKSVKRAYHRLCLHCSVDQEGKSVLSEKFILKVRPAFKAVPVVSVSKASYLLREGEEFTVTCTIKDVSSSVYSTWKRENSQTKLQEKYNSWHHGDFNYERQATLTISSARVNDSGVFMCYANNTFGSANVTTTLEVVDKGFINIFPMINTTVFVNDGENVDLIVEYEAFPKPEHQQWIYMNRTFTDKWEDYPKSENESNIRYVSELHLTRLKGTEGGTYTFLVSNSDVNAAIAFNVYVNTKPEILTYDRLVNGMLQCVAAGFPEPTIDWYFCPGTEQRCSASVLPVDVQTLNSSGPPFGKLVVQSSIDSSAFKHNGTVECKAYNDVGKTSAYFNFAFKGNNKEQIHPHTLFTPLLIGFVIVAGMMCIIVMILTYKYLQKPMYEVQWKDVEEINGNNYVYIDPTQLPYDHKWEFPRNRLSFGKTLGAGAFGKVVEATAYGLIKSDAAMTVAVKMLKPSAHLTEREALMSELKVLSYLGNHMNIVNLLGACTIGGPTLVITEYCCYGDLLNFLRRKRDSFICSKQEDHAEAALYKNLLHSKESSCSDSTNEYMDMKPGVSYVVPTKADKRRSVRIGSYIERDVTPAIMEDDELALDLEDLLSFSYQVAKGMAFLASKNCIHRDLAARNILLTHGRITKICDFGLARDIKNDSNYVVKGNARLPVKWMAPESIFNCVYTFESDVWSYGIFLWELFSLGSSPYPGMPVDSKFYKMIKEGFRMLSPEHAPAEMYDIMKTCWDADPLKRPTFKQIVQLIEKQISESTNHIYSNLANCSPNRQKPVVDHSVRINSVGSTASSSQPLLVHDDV"}, "LRRK2(G2019S)": {"target": "T25, LRRK2(G2019S) (Homo sapiens, UniProt Q5S007, G2019S)", "T25 construct": "purchased DiscoveRx KINOMEscan"}, "MRCKA": {"target": "T26, MRCKA (Homo sapiens, UniProt Q5VT25)", "T26 construct": "purchased DiscoveRx KINOMEscan"}, "MST3": {"target": "T27, MST3 (Homo sapiens, UniProt Q9Y6E0)", "T27 construct": "purchased DiscoveRx KINOMEscan"}, "MYLK": {"target": "T28, MYLK (Homo sapiens, UniProt Q15746)", "T28 construct": "purchased DiscoveRx KINOMEscan"}, "OSR1": {"target": "T29, OSR1 (Homo sapiens, UniProt O95747)", "T29 construct": "purchased DiscoveRx KINOMEscan"}, "PIK3CA(C420R)": {"target": "T30, PIK3CA(C420R) (Homo sapiens, UniProt P42336, C420R)", "T30 construct": "purchased DiscoveRx KINOMEscan", "T30 sequence (P42336 whole entry C420R)": "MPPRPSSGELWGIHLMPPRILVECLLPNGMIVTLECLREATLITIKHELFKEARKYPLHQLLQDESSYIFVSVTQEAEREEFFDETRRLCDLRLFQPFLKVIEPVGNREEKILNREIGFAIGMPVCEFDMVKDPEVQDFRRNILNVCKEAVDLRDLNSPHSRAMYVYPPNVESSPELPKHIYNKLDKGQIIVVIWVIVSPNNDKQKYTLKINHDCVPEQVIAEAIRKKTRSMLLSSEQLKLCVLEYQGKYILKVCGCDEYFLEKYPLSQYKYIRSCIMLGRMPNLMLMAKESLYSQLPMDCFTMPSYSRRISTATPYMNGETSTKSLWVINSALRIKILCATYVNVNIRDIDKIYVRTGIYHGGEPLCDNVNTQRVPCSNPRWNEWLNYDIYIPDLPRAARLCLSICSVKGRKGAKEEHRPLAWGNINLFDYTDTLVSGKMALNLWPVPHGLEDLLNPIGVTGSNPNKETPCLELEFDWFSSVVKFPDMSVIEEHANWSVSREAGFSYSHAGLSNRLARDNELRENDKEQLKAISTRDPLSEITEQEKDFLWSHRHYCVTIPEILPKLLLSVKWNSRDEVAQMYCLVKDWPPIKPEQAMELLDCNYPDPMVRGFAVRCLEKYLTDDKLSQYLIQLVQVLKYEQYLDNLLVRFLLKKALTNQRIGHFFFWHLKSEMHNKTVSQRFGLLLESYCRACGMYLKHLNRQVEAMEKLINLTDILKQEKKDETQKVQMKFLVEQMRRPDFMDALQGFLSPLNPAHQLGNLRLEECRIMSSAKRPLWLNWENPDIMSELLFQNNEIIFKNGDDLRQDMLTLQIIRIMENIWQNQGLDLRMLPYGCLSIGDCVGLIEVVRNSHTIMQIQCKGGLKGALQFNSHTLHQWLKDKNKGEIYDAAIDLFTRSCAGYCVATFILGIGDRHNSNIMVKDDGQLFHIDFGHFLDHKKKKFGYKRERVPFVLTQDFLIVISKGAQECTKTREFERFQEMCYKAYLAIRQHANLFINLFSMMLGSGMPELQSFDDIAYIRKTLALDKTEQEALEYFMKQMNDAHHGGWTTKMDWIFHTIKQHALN"}, "PIK3CA(E545A)": {"target": "T31, PIK3CA(E545A) (Homo sapiens, UniProt P42336, E545A)", "T31 construct": "purchased DiscoveRx KINOMEscan", "T31 sequence (P42336 whole entry E545A)": "as the sequence (P42336 whole entry C420R) above, with R420C, E545A counted along it"}, "QSK": {"target": "T32, QSK (Homo sapiens, UniProt Q9Y2K2)", "T32 construct": "purchased DiscoveRx KINOMEscan", "T32 sequence (Q9Y2K2 whole entry)": "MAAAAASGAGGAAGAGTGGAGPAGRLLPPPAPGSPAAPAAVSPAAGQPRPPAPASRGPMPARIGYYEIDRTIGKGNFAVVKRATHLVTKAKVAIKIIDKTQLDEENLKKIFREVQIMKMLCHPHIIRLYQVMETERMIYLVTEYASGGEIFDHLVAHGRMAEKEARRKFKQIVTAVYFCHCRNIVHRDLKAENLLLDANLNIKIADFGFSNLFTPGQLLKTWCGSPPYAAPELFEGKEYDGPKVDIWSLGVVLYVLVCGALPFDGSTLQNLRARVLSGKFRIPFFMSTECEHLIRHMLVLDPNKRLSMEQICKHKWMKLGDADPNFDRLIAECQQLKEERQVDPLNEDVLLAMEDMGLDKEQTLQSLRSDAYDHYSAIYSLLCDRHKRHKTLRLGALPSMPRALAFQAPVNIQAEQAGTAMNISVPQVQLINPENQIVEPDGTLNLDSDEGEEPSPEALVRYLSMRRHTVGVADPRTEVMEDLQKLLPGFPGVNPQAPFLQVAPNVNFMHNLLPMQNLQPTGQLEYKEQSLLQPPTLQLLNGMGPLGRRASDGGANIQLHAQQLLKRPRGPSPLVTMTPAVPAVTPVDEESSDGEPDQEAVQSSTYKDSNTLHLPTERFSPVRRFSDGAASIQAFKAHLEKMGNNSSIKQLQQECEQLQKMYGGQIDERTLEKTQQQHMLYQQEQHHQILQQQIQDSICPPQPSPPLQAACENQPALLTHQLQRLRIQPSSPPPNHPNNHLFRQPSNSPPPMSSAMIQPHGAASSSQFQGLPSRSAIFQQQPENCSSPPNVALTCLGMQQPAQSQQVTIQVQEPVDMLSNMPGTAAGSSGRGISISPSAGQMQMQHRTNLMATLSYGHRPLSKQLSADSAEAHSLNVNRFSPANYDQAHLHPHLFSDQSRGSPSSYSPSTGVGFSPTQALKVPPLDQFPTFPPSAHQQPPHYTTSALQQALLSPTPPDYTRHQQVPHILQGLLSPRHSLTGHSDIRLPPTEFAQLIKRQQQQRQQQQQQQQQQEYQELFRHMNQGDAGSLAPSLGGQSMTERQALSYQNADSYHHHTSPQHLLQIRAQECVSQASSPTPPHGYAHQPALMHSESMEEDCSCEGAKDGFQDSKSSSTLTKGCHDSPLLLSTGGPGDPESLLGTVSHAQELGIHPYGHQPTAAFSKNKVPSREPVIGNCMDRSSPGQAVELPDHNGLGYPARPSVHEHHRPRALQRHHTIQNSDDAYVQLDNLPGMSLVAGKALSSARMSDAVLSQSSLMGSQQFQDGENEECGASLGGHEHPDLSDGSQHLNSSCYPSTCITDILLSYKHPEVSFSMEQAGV"}, "RIPK1": {"target": "T33, RIPK1 (Homo sapiens, UniProt Q13546)", "T33 construct": "purchased DiscoveRx KINOMEscan"}, "TLK2": {"target": "T34, TLK2 (Homo sapiens, UniProt Q86UE8)", "T34 construct": "purchased DiscoveRx KINOMEscan"}, "WEE1": {"target": "T35, WEE1 (Homo sapiens, UniProt P30291)", "T35 construct": "purchased DiscoveRx KINOMEscan", "T35 sequence (P30291 whole entry)": "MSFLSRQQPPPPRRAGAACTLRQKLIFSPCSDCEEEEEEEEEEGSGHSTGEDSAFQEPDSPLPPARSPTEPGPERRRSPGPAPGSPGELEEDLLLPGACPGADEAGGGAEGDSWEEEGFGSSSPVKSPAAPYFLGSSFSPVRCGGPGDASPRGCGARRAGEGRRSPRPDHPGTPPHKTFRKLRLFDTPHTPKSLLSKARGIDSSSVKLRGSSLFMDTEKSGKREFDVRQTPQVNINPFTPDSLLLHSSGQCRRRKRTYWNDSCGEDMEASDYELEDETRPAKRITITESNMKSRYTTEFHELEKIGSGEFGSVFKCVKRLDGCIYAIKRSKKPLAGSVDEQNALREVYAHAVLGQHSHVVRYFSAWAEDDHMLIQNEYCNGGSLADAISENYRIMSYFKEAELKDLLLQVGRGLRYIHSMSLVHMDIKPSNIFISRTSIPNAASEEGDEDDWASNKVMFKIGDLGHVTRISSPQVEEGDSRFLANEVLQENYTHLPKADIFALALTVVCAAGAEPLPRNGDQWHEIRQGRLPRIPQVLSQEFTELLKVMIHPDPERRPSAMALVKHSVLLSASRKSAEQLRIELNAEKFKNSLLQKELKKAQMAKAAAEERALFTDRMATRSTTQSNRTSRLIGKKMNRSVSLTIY"}, "YES": {"target": "T36, YES (Homo sapiens, UniProt P07947)", "T36 construct": "purchased DiscoveRx KINOMEscan"}, "YSK1": {"target": "T37, YSK1 (Homo sapiens, UniProt O00506)", "T37 construct": "purchased DiscoveRx"}},
  "data": [
    {"smiles": "CCN(C(=O)CO)[C@H]1CN(/C(=N\\C#N)Nc2cccc(OC(F)F)c2)N=C1c1ccc(Cl)c(Cl)c1", "note": "[(S)-4]", "values": [
      {"measurement": "remaining binding at 1 µM", "setting": "[1]", "result": 88, "unit": "%"},
      {"measurement": "remaining binding at 1 µM", "setting": "[2]", "result": 100, "unit": "%"},
      {"measurement": "remaining binding at 1 µM", "setting": "ABL1-nonphosphorylated", "result": 79, "unit": "%"},
      {"measurement": "remaining binding at 1 µM", "setting": "ALK(L1196M)", "result": 92, "unit": "%"},
      {"measurement": "remaining binding at 1 µM", "setting": "AURKA", "result": 96, "unit": "%"},
      {"measurement": "remaining binding at 1 µM", "setting": "BMPR2", "result": 100, "unit": "%"},
      {"measurement": "remaining binding at 1 µM", "setting": "BRAF(V600E)", "result": 100, "unit": "%"},
      {"measurement": "remaining binding at 1 µM", "setting": "CAMKK2", "result": 84, "unit": "%"},
      {"measurement": "remaining binding at 1 µM", "setting": "CDC2L2", "result": 92, "unit": "%"},
      {"measurement": "remaining binding at 1 µM", "setting": "CDC2L5", "result": 81, "unit": "%"},
      {"measurement": "remaining binding at 1 µM", "setting": "PRP4", "result": 90, "unit": "%"},
      {"measurement": "remaining binding at 1 µM", "setting": "CSNK1D", "result": 100, "unit": "%"},
      {"measurement": "remaining binding at 1 µM", "setting": "CSNK2A1", "result": 78, "unit": "%"},
      {"measurement": "remaining binding at 1 µM", "setting": "DCAMKL3", "result": 75, "unit": "%"},
      {"measurement": "remaining binding at 1 µM", "setting": "DRAK2", "result": 100, "unit": "%"},
      {"measurement": "remaining binding at 1 µM", "setting": "[3]", "result": 86, "unit": "%"},
      {"measurement": "remaining binding at 1 µM", "setting": "EPHA3", "result": 100, "unit": "%"},
      {"measurement": "remaining binding at 1 µM", "setting": "EPHA5", "result": 100, "unit": "%"},
      {"measurement": "remaining binding at 1 µM", "setting": "ERK5", "result": 80, "unit": "%"},
      {"measurement": "remaining binding at 1 µM", "setting": "FAK", "result": 99, "unit": "%"},
      {"measurement": "remaining binding at 1 µM", "setting": "FLT1", "result": 95, "unit": "%"},
      {"measurement": "remaining binding at 1 µM", "setting": "FRK", "result": 77, "unit": "%"},
      {"measurement": "remaining binding at 1 µM", "setting": "IKK-beta", "result": 100, "unit": "%"},
      {"measurement": "remaining binding at 1 µM", "setting": "KIT(V559D)", "result": 99, "unit": "%"},
      {"measurement": "remaining binding at 1 µM", "setting": "LRRK2(G2019S)", "result": 98, "unit": "%"},
      {"measurement": "remaining binding at 1 µM", "setting": "MRCKA", "result": 93, "unit": "%"},
      {"measurement": "remaining binding at 1 µM", "setting": "MST3", "result": 100, "unit": "%"},
      {"measurement": "remaining binding at 1 µM", "setting": "MYLK", "result": 86, "unit": "%"},
      {"measurement": "remaining binding at 1 µM", "setting": "OSR1", "result": 78, "unit": "%"},
      {"measurement": "remaining binding at 1 µM", "setting": "PIK3CA(C420R)", "result": 76, "unit": "%"},
      {"measurement": "remaining binding at 1 µM", "setting": "PIK3CA(E545A)", "result": 53, "unit": "%"},
      {"measurement": "remaining binding at 1 µM", "setting": "QSK", "result": 94, "unit": "%"},
      {"measurement": "remaining binding at 1 µM", "setting": "RIPK1", "result": 76, "unit": "%"},
      {"measurement": "remaining binding at 1 µM", "setting": "TLK2", "result": 93, "unit": "%"},
      {"measurement": "remaining binding at 1 µM", "setting": "WEE1", "result": 100, "unit": "%"},
      {"measurement": "remaining binding at 1 µM", "setting": "YES", "result": 100, "unit": "%"},
      {"measurement": "remaining binding at 1 µM", "setting": "YSK1", "result": 90, "unit": "%"}
    ]}
  ]
}
